Data on two molecules can be found in patent publication US11479617B2, “Chelator-functionalized glycosaminoglycans” (priority 2018, dated 2022).

Take `O.O.O.O.O.O.[Cl-].[Cl-].[Co+2]` [CoCl2.6H2O]: the maximal inhibitory concentration is approximately 50 µg/mL with RAW 264.7 macrophages and approximately 25 µg/mL with NIH-3T3 fibroblasts.

In the case of hyaluronic acid [HA], the “cytocompatibility (cell enumeration, metabolism, toxicity)” value in the data set on RAW 264.7 macrophages and in the data set on NIH-3T3 fibroblasts was “cytocompatible” each time.
